Common to all, as to conditions: NADPH co-substrate
One data set addresses T1, PcAad1p (Phanerodontia chrysosporium, UniProt Q01752).
T1 construct: full length, plasmid pGS-21a-PcAad1, N-terminal His6-GST and C-terminal His6 tags kept, E. coli BL21 Star; coding primer starts ATGAACATCTGGGCACCCG (MNIWAP)
T1 sequence (Q01752 1-385): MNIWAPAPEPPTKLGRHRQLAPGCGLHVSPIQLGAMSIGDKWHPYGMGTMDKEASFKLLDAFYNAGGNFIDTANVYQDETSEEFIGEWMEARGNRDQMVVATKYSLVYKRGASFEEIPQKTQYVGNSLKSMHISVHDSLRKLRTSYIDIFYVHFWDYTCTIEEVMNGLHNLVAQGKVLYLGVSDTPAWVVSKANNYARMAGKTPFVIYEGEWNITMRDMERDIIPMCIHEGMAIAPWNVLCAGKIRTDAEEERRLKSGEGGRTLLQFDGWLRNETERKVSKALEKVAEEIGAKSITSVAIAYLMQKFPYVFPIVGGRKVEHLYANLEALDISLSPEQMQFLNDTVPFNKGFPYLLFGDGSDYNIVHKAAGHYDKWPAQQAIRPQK
The data set is described as follows: spectrophotometric NADPH consumption at […] nm. The data set is classed as biochemical.

The target in another data set is T2, ScAad10^-35Cp (Saccharomyces cerevisiae, UniProt P47182).
T2 construct: gene AAD10; resurrected pseudogene: in-frame upstream 264 bp (88 residues) restored to annotated Aad10, stop TAG to CAG (Gln) at nt -35; annotated natural ORF (YJR155W) lacks these residues; N-terminal His6-GST and C-terminal His6 tags, E. coli BL21 Star
T2 sequence (P47182 1-288): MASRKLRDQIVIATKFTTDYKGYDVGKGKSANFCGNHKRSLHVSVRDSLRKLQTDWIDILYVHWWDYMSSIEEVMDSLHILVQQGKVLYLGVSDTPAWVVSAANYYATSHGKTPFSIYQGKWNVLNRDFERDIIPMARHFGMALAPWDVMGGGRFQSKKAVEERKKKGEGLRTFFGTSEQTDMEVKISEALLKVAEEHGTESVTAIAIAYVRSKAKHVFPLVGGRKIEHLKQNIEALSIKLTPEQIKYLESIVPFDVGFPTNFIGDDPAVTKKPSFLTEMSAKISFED
As to the kind of experiment: spectrophotometric NADPH consumption at […] nm. The data set is classed as biochemical.

Substrate in the data set “purified protein”: O=Cc1ccc(CO)o1
The data set is described as follows: purified protein. The data set is classed as biochemical, Phanerodontia chrysosporium.

For 4 molecules, Km and Vmax results are on record in paper PMC5734042, “Deciphering the Origin, Evolution, and Physiological Function of the Subtelomeric Aryl-Alcohol Dehydrogenase Gene Family in the Yeast Saccharomyces cerevisiae” (Applied and Environmental Microbiology, 2017).

Take `COc1ccc(C=O)cc1` [4-methoxybenzaldehyde]: the Km on PcAad1p was 87.3 ± 116 µM.

As to `O=Cc1ccc(CO)o1` [hydroxymethylfurfural], on ScAad10^-35Cp, the Km turned out to be 608 ± 246 µM.

`O=CCc1ccccc1` [phenylacetaldehyde]: the Km on PcAad1p came out at 527 ± 72.5 µM.

B1: PcAad1p (Phanerodontia chrysosporium) (protein)
chain: MNIWAPAPEPPTKLGRHRQLAPGCGLHVSPIQLGAMSIGDKWHPYGMGTMDKEASFKLLDAFYNAGGNFIDTANVYQDETSEEFIGEWMEARGNRDQMVVATKYSLVYKRGASFEEIPQKTQYVGNSLKSMHISVHDSLRKLRTSYIDIFYVHFWDYTCTIEEVMNGLHNLVAQGKVLYLGVSDTPAWVVSKANNYARMAGKTPFVIYEGEWNITMRDMERDIIPMCIHEGMAIAPWNVLCAGKIRTDAEEERRLKSGEGGRTLLQFDGWLRNETERKVSKALEKVAEEIGAKSITSVAIAYLMQKFPYVFPIVGGRKVEHLYANLEALDISLSPEQMQFLNDTVPFNKGFPYLLFGDGSDYNIVHKAAGHYDKWPAQQAIRPQK
notes: full length, plasmid pGS-21a-PcAad1, N-terminal His6-GST and C-terminal His6 tags kept, E. coli BL21 Star; coding primer starts … (MNIWAP)
As for B1, in the data set “purified protein”, the Km stood at 171 ± 36.7 µM and the Vmax is recorded as 2.40 ± 0.27 in micromoles per minute per mg.

One may read the Km as the substrate concentration at which the rate is half of its maximum.
